Assay results published in patent US8552018B2, “Substituted tricyclic compounds as protein kinase inhibitors” (Arizona Board of Regents on behalf of the University of …, priority 2003, dated 2013).

Legend:
[1] = test system: Akt phosphorylation in NIH 3T3 cells; assay: Immunoblot for phospho-Akt (S473); assay type: cell-based
Protocol: In order to evaluate these effects at the cellular level, immunoblot analysis was performed on lysates from cells treated with MP470, with or without the addition of the EGFR inhibitor Tarceva®. Lysates were assayed for general tyrosine kinase activity, as well as the specific phosphorylation of c-Met and Akt. Briefly, NIH 3T3 cells were pretreated with drugs as indicated for 4 hours, then treated with pervanadate for a further 30 minutes. Immunoblot detection was carried out with antibodies for phosphotyrosine, phospho-Met and phospho-Akt (S473), as well as total c-Met and Akt. Beta-actin was used as a loading control.

PDGFRα(V561D)(h) = PDGFRα(V561D)(h) (Homo sapiens, UniProt P16234, V561D); assay: Kinase profile screen; assay type: biochemical; details: 1 uM
Protocol: (§1) In order to determine the specificity and potential alternative targets for MP470, kinase profile screen were performed utilizing the KinaseProfiler™ Screen (Upstate Corp) and Select Screen™ kinase profiling (Invitrogen). Between the two screens, 53 different kinases were tested, representing a broad proportion of the human kinome. MP470 was screened at a concentration of 1 μM against both wildtype and mutant kinases.

cKit(V560G)(h) = cKit(V560G)(h) (Homo sapiens, UniProt P10721, V560G); assay: Kinase profile screen; assay type: biochemical; details: 1 uM
Protocol: as §1

Flt3(D835Y)(h) = Flt3(D835Y)(h) (Homo sapiens, UniProt P36888, D835Y); assay: Kinase profile screen; assay type: biochemical; details: 1 uM
Protocol: as §1

cKit(D816V)(h) = cKit(D816V)(h) (Homo sapiens, UniProt P10721, D816V); assay: Kinase profile screen; assay type: biochemical; details: 1 uM
Protocol: as §1

cKit(V654A)(h) = cKit(V654A)(h) (Homo sapiens, UniProt P10721, V654A); assay: Kinase profile screen; assay type: biochemical; details: 1 uM
Protocol: as §1

aurora-2 kinase = target: T1, aurora-2 kinase (Homo sapiens, UniProt O14965); assay: Protein kinase inhibitory activity (Example 33, Kinase-Glo); assay type: biochemical; details: FIG. 27
T1 construct: purchased Imgenex, San Diego, Calif; host or cells: sf9 cells
T1 sequence (O14965 1-403): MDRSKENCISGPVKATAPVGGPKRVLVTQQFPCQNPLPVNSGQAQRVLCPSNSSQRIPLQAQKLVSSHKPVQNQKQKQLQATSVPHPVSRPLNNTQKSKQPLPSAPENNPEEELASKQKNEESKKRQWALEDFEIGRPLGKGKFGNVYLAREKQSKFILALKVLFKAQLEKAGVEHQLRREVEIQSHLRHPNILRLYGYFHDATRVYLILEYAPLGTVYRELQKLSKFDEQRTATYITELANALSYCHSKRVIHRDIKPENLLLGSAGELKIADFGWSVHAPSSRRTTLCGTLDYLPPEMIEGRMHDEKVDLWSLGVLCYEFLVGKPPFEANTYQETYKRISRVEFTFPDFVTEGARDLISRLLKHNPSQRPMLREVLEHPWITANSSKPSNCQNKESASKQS
Protocol: Percent activity was determined for individual compounds by comparing luminometer readings of drug-treated reactions to controls containing no drug (RLUNo Inhib) and no Aurora-2 enzyme (RLUNo Kinase) in the following equation:
After incubation, 50 μl of Kinase-Glo® (Promega, Inc., Madison, Wis.) solution was added to each reaction mixture and allowed to equilibrate for 10 minutes at room temperature. Kinase-Glo solution contains luciferase enzyme and luciferin, which react with ATP to produce light. Kinase activity is determined by quantifying the amount of ATP remaining in solution following the kinase reaction by measuring the relative light units (RLU) produced by luciferase using a luminometer (Thermo Electron Corporation, Vantaa, Finland).

PDGFRα(V561D)(h), sequence (P16234 24-1089 V561D): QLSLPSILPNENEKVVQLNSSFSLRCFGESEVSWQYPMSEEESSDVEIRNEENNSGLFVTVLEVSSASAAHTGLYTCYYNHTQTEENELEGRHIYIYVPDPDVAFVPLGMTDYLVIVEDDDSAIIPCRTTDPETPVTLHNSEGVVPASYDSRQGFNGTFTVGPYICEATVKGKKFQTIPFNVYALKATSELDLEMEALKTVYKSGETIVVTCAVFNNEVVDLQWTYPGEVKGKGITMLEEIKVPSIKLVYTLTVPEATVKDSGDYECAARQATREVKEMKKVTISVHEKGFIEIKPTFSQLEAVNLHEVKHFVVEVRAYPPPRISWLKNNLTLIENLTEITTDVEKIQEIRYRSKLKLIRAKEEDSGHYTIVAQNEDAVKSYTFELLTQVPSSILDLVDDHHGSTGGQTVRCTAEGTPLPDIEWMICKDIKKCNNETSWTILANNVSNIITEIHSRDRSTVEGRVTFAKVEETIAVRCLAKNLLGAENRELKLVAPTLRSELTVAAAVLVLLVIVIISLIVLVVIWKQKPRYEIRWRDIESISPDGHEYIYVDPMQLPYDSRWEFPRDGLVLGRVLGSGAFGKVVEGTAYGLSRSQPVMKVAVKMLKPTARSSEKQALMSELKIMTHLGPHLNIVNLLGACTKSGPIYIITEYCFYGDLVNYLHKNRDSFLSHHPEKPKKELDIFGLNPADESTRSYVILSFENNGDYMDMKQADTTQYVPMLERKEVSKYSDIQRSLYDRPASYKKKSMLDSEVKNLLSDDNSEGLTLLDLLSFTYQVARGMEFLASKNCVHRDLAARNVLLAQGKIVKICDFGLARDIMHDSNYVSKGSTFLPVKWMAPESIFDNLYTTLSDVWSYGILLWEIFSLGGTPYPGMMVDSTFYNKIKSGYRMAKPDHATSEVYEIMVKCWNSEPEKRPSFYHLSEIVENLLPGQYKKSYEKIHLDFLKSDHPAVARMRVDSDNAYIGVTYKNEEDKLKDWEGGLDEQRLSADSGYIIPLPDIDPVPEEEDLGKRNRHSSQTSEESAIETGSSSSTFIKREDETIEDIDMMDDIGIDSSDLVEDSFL
cKit(D816V)(h), sequence (P10721 26-976 D816V): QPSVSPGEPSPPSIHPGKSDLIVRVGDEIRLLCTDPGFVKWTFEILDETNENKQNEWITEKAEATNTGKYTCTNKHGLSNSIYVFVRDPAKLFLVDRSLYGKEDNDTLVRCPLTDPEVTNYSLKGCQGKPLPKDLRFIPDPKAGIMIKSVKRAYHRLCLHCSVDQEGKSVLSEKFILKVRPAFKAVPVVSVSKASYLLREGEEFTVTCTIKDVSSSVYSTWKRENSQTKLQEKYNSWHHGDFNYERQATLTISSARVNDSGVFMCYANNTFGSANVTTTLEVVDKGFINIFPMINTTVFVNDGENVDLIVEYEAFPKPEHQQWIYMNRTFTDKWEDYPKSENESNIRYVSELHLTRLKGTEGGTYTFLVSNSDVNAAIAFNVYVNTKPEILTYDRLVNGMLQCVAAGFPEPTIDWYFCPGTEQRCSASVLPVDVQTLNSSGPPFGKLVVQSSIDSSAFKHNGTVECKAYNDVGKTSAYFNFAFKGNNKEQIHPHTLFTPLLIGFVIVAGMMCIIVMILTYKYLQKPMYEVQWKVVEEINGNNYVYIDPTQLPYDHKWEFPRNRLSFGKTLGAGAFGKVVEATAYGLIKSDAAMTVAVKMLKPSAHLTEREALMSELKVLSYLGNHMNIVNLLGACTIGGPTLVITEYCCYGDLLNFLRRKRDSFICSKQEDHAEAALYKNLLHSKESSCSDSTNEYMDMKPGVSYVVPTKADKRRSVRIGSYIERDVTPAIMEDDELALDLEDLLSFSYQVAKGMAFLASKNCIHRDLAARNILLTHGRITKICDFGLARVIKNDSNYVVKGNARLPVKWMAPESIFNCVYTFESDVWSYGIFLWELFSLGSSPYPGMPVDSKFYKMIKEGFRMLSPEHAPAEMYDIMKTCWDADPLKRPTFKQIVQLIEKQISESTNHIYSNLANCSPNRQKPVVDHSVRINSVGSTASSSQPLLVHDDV
cKit(V560G)(h), sequence (P10721 26-976 V560G): as the sequence (P10721 26-976 D816V) above, with V535G, V791D counted along it
cKit(V654A)(h), sequence (P10721 26-976 V654A): as the sequence (P10721 26-976 D816V) above, with V629A, V791D counted along it

kinase inhibitory activity (in words) (aurora-2 kinase)	Structure (SMILES)	phosphorylation of Akt ([1]; NIH 3T3, 4 hours, agent alone)	phosphorylation of Akt ([1]; NIH 3T3, MP-470 in combination with Tarceva®)	activity against mutant kinase (PDGFRα(V561D)(h))	activity against mutant kinase (cKit(V560G)(h))	activity against mutant kinase (Flt3(D835Y)(h))	activity against mutant kinase (cKit(D816V)(h))	activity against mutant kinase (cKit(V654A)(h))
	S=C(NCc1ccc2c(c1)OCO2)N1CCN(c2ncnc3c2oc2ccccc23)CC1 [HPK56, 4-Benzo[4,5]furo[3,2-d]pyrimidin-4-yl-piperazine-1-carbothioic acid (benzo[1,3]dioxol-5-ylmethyl)-amide]	reduced	reduced	activity	activity	activity	activity	activity
highest activity	COc1cc2[nH]c3ncnc(N4CCN(C(=S)Nc5ccc(S(=O)(=O)Nc6ncccn6)cc5)CC4)c3c2cc1OC [HPK62, 4-(6,7-Dimethoxy-9H-1,3,9-triaza-fluoren-4-yl)-piperazine-1-carbothioic acid [4-(pyrimidin-2-ylsulfamoyl)-phenyl]-amide]							
